The numbers were not newly measured in patent US20150291659A1, “SOLOMONAMIDE ANALOGUE COMPOUNDS, PHARMACEUTICALS CONTAINING SOLOMONAMIDE ANALOGUE COMPOUNDS, AND PROCESSES FOR THE PREPARATION THEREOF” (COUNCIL OF SCIENTIFIC AND INDUSTRIAL RESEARCH, priority 2012, published 2015), which cites them from elsewhere.

The data set has as its system carrageenan induced paw edema. Conditions: carrageenan induced paw edema model, animal-models, 100 μg/kg.

For the compound `C[C@@H]1C(=O)NCC(=O)N[C@H](C)C(=O)Nc2cc(O)ccc2C(=O)[C@H](O)[C@@H](NC(=O)[C@@H](N)CO)[C@@H]1O` [Solomonamide A], the reduction of inflammation was roughly 60%.
